“Also recorded” adds a separate entry of the source.
Tests used:
[1] = system: phospho-STAT3 (Ser-727); test: Western blot of phospho-STAT3 (Ser-727) in HepG2; assay type: cell-based, human; details: HepG2, 10 μMol/L CIMO
Description: (§1) FIG. 2 depicts the suppression of phospho-STAT3 by compound 1 (CIMO) in a dose dependent manner [A]. HepG2 cells (5×10^5/mL) are treated with the indicated concentrations of CIMO for 6 hours, after which whole-cell extracts are prepared and resolved on SDS-PAGE gel, electrotransferred onto nitrocellulose membrane, and probed for phospho-STAT3. The same blot is stripped and reprobed with STAT3 antibody to verify equal protein loading. […] HepG2 cells (5×10^5/mL) are treated with the indicated concentrations of AG490 for about 6 hours, after which Western Blotting is done as described for [A]. [C] depicts the suppression of phospho-STAT3 levels by Compound 1 (CIMO) in a time-dependent manner. HepG2 cells (5×10^5/mL) are treated with 10 μMol/L CIMO for the indicated times, after which Western blotting is done as described for [A]. [D] depicts that compound 1 (CIMO) has no effect on phospho-STAT3 (Ser-727) and STAT3 protein expression. […] HepG2 cells (1×10^5/mL) are incubated with or without 10 μMol/L CIMO for about 6 hours and then analyzed for the intracellular distribution of STAT3 by immunocytochemistry. The same slides are counterstained for nuclei with Hoechst (50 ng/mL) for about 5 minutes and analyzed under an fluorescencemicroscope. […]

[2] = system: phospho-STAT3 (Y705); test: Western blot of constitutive phospho-STAT3 (Y705) in HepG2; assay type: cell-based, human
Description: FIG. 2 depicts the suppression of phospho-STAT3 by compound 1 (CIMO) in a dose dependent manner [A]. HepG2 cells (5×10^5/mL) are treated with the indicated concentrations of CIMO for 6 hours, after which whole-cell extracts are prepared and resolved on SDS-PAGE gel, electrotransferred onto nitrocellulose membrane, and probed for phospho-STAT3. The same blot is stripped and reprobed with STAT3 antibody to verify equal protein loading. […] HepG2 cells (5×10^5/mL) are treated with the indicated concentrations of AG490 for about 6 hours, after which Western Blotting is done as described for [A]. [C] depicts the suppression of phospho-STAT3 levels by Compound 1 (CIMO) in a time-dependent manner. HepG2 cells (5×10^5/mL) are treated with 10 μMol/L CIMO for the indicated times, after which Western blotting is done as described for [A]. [D] depicts that compound 1 (CIMO) has no effect on phospho-STAT3 (Ser-727) and STAT3 protein expression. HepG2 cells (5×10^5/mL) are treated with 10 μMol/L CIMO for the indicated times, after which Western Blotting is done as described for [A] and membrane is probed using antibodies against phospho-STAT3 (Ser-727) and STAT3. […] HepG2 cells (1×10^5/mL) are incubated with or without 10 μMol/L CIMO for about 6 hours and then analyzed for the intracellular distribution of STAT3 by immunocytochemistry. The same slides are counterstained for nuclei with Hoechst (50 ng/mL) for about 5 minutes and analyzed under an fluorescencemicroscope. […] HepG2 cells (5×10^5/mL) are treated with 10 μMol/L CIMO, after which whole-cell extracts are prepared, resolved in SDS-PAGE, electrotransferred onto nitrocellulose membrane, and probed with phospho-Src, phospho-JAK1 and phospho-JAK2 antibodies. The same blots are stripped and reprobed with Src, JAK1 and JAK2 antibodies to verify equal protein loading. [G] depicts the suppression of STAT3 DNA binding ability by Compound 1 (CIMO) in HepG2 cells. HepG2 cells are treated with 10 μMol/L CIMO for the indicated time, nuclear extracts are prepared, and 5 μg of the nuclear extract protein is used for ELISA-based DNA-binding assay.
CIMO is tested towards the inhibition of constitutive activation of STAT3 in HepG2 cells by Western Blotting via antibodies recognising phospho-STAT3 (Y705). For detection of phospho-proteins, CIMO treated whole-cell extracts are lysed in lysis buffer [20 mM Tris (pH 7.4), 250 mM NaCl, 2 mM Ethylenediaminetetraacetic acid (pH 8.0), 0.1% Triton-X-100, 0.01 mg/ml aprotinin, 0.005 mg/ml leupeptin, 0.4 mM phenylmethanesulfonylfluoride, and 4 mM NaVO4). Lysates are then spun at 14,000 rpm for about 10 minutes to remove insoluble material and resolved on SDS gel. After electrophoresis, the proteins are electrotransferred to a nitrocellulose membrane, blocked with 5% non-fat milk, and probed with various antibodies (1:1000) overnight at about 4° C. The blot is washed, exposed to HRP-conjugated secondary antibodies for about 1 hour, and finally examined by chemiluminescence (ECL; GE Healthcare, Little Chalfont, Buckinghamshire, UK).

[3] = system: HepG2 cells; test: MTT anti-proliferative assay, HepG2; assay type: cell-based; details: Homo sapiens
Description: (§2) The anti-proliferative activity of Formula I compounds are studied on HepG2 cells using MTT assay. Briefly, the cells (2.5×10^4/ml) are incubated in triplicate in a 96-well plate in the presence or absence of different concentrations of compounds in a final volume of 0.2 ml up to 72 hours at 37° C. Thereafter, 20 μl MTT solution (5 mg/ml in PBS) is added to each well. After 2 hours of incubation at 37° C., 0.1 ml lysis buffer (20% SDS, 50% dimethyl-formamide) is added; incubation is continued overnight at 37° C.; and the optical density (OD) at 570 nm is measured by Tecan plate reader.

[4] = system: phospho-STAT3, Ki-67, cleaved caspase-3; test: Immunohistochemistry of tumor tissues; assay type: in vivo, athymic nu/nu female mice; details: treated vs. control group
Description: The effect of CIMO on constitutive phospho-STAT3 levels in HCC tumor tissues is further analyzed by immunohistochemical analysis. Solid tumors from control and drug-treated groups are fixed with 10% phosphate buffered formalin, processed, and embedded in paraffin. The sections are cut to 5 micron size and deparafinized in xylene, dehydrated in graded alcohol, and finally hydrated in water. Antigen retrieval is conducted by boiling the slide in 10 mM sodium citrate (pH 6.0) for about 30 minutes. Immunohistochemistry is conducted following the manufacturer's instructions (Dako LSAB Kit). Briefly, endogenous peroxidases are quenched with 3% hydrogen peroxide. Sections are incubated with primary antibodies for about 2 hours as follows: anti-pSTAT3, anti-Ki-67 and anti-caspase-3 (each at 1:100 dilutions). The slides are subsequently washed several times in TBS with 0.1% Tween-20 and are incubated with biotinylated linker for about 45 minutes, provided in the LSAB Kit according to the manufacturer's instructions. Immunoreactive species are detected using 3, 3′-diaminobenzidine tetrahydrochloride as a substrate. The sections are counterstained with Gill's hematoxylin and mounted under glass cover slips. Images are taken using an Olympus BX51 microscope (magnification, 40×). Quantitative analysis of immunohistochemistry images are done by visual scores between the control and treated images. In this expression quantitation technique, each image is divided into four parts and each part is individually quantitated for the biomarker expression. A cell scored as positive refers to the presence of brown staining (peroxidase) in any part of the studied tissue. A negative cell scored refers to no staining or weak staining.

[5] = system: c-Src; test: Western blot of constitutive phospho-Src in HepG2; assay type: cell-based, human; details: HepG2, 10 μMol/L CIMO
[6] = system: JAK2; test: Western blot of constitutive phospho-JAK2 in HepG2; assay type: cell-based, human; details: HepG2, 10 μMol/L CIMO
Description: as §1

[7] = system: MDA MB231 (breast cancer cell line); test: MTT anti-proliferative assay, MDA MB231; assay type: cell-based; details: Homo sapiens, MDA-MB-231
Description: as §2
Additionally, Compound 1 is tested on a panel of six cell lines including Hep3B, PLC/PRF5, AGS (gastric cancer cell line), DU145 (prostrate cancer cell line), MDA MB231 (breast cancer cell line) and CAL27 (head and neck cancer cell line) cells.

## COc1ccc(C2CNC(c3cn(Cc4ccc(-c5ccccc5C#N)cc4)c4ccccc34)OC23CCCCC3)cc1 (stereo not shown) [Compound 1]
[1]
  phosphorylation of S727 of STAT3: no effect
[2]; HepG2
  time of maximum inhibition of phospho-STAT3: 6 h
[2]; HepG2, 4 μM CIMO
  phospho-STAT3 levels versus DMSO control: decreased phospho-STAT3 levels
  protein levels of total STAT3 versus DMSO control: not significantly altered
[2]; HepG2, 6 hours
  concentration of maximum inhibition of phospho-STAT3: 20 µM
[2]; HepG2, CIMO compared to AG490
  concentration for comparable phospho-STAT3 effect versus AG490: ten-fold lower concentration
[2]; HepG2, Western blot, dose and time course, listed as CIMO
  levels of phospho-STAT3 (Y705): substantially downregulated in a dose- and time-dependent manner; also recorded: completely inhibits
[2]; HepG2, same blots reprobed
  STAT3 protein expression: remains unchanged
[3]; HepG2, Table 2
  IC50: 7.3 µM
[3]; HepG2 cells after 72 hours, MTT
  IC50: 7.3 µM
[4]
  constitutive STAT3 activation in tumor tissues: significantly inhibits
  expression of Ki-67 in tumor tissues: downregulated
  expression of cleaved caspase-3 in tumor tissues: significantly increased
[5]
  phosphorylation of c-Src kinases: significant inhibition
[6]
  phosphorylation of JAK2: significant inhibition
[7]
  IC50: 24.3 µM
